In ChEMBL document CHEMBL5316287 (J Med Chem, 2023):

Tests used:
[1] = target: Histone acetyltransferase KAT5 (Homo sapiens, UniProt Q92993); test: Inhibition of TIP60 (unknown origin) biotinylated H4 (1 to 25)-GSGSK peptide as substrate incubated for 1 hr in presence of acetyl-coA by AlphaLISA assay
[2] = Toxicity in castrated NSG mouse xenografted with human VCaP cells assessed as mortality at 0.3 to 3 mg/kg,po qd for 33 days consecutively; assay type: organism-based; settings: in vivo, 792 h, dose 0.3-3 mg/kg, time 33 day
LNCaP [3] = test: Inhibition of H3K18 acetylation in AR-positive human LNCaP cells at 3.9 to 1000 nM incubated for 72 hrs by Western blot analysis; assay type: functional, cell-based; settings: dose 3.9-1000 nM
[4] = Volume of distribution at steady state in BALB/cAnNCrlCrlj mouse at 1 mg/kg,iv administered as DMA/Tween80/saline (1:1:8 ratio) solution; assay type: ADME, organism-based; settings: in vivo, read-out: Vdss
VCaP [5] = test: Antitumor activity against human VCaP cells xenografted in castrated NSG mouse assessed as decrease in plasma PSA expression at 0.3 to 3 mg/kg,po qd for 33 days consecutively and measured after 6 hrs by ELISA; assay type: functional, organism-based; settings: dose 0.3-3 mg/kg, time 33.0 day
[6] = 1-Octanol/PBS partition coefficient, logD of the compound at pH 7.4 incubated for 30 mins by shake flask technique based HPLC-LC/MS analysis; assay type: physicochemical
CWR22R = test: Antiproliferative activity against AR-positive human 22Rv1 cells assessed as cell growth inhibition incubated for 7 days by CellTiter-Glo assay; assay type: functional; settings: 22Rv1, 168 h, time 7 day
[7] = Toxicity in castrated NSG mouse xenografted with human VCaP cells assessed as body weight loss at 0.3 to 3 mg/kg,po qd for 33 days consecutively; assay type: organism-based; settings: in vivo, 792 h, dose 0.3-3 mg/kg, time 33 day
[8] = target: Histone acetyltransferase KAT2A (Homo sapiens, UniProt Q92830); test: Inhibition of GCN5 (unknown origin) biotinylated H3 (1 to […])-GGK peptide as substrate incubated for 1 hr in presence of acetyl-coA by AlphaLISA assay
Chain of Histone acetyltransferase KAT2A (Q92830 whole entry): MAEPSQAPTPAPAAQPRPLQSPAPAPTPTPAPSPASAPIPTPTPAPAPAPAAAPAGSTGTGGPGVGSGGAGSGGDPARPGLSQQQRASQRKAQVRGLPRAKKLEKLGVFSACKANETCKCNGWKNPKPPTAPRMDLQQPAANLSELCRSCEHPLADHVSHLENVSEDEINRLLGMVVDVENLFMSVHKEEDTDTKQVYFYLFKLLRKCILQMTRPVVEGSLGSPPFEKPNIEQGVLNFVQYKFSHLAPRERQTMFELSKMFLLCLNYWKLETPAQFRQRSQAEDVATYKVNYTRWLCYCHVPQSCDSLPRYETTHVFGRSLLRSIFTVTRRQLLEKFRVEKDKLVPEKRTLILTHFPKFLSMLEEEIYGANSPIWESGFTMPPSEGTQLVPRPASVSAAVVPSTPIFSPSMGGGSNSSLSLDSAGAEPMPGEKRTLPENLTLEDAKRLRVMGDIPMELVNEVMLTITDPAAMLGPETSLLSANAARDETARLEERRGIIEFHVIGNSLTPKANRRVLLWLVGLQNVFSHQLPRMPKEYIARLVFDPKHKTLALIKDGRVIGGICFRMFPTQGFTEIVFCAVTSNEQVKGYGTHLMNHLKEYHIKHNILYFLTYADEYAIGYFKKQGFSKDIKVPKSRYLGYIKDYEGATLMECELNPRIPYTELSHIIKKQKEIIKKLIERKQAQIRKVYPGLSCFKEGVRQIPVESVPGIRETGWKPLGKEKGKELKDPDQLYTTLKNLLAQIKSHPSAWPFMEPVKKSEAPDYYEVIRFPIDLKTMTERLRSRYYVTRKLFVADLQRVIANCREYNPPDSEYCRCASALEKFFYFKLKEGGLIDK

[9] = target: Histone acetyltransferase KAT7 (Homo sapiens, UniProt O95251); test: Inhibition of MYST2 (unknown origin) biotinylated H4 (1 to 25)-GSGSK peptide as substrate incubated for 1 hr in presence of acetyl-coA by AlphaLISA assay
LNCaP [10] = test: Inhibition of H3K27 acetylation in AR-positive human LNCaP cells at 3.9 to 1000 nM incubated for 72 hrs by Western blot analysis; assay type: functional, cell-based; settings: dose 3.9-1000 nM
VCaP [11] = test: Antitumor activity against human VCaP cells xenografted in castrated NSG mouse assessed as tumor growth inhibition at 0.3 mg/kg,po qd for 33 days consecutively; assay type: functional; settings: 792 h, time 33 day, read-out: TGI
[12] = target: Histone acetyltransferase p300 (Homo sapiens, UniProt Q09472); test: Inhibition of EP300 in human LK2 cells assessed as reduction in intracellular H3K27 acetylation incubated for 3 hrs by chemiluminescence based ELISA; assay type: cell-based
VCaP [13] = test: Downregulation of PSA expression in AR-positive human VCaP cells at 3.9 to 1000 nM incubated for 72 hrs by Western blot analysis; assay type: functional, cell-based; settings: dose 3.9-1000 nM
[14] = Metabolic stability in human liver microsomes assessed as intrinsic clearance at 1 uM; assay type: ADME, Microsome
[15] = Oral bioavailability in BALB/cAnNCrlCrlj mouse at 10 mg/kg; assay type: ADME, organism-based; settings: in vivo, po, 10 mg/kg
CREB-binding protein = CREB-binding protein (Homo sapiens, UniProt Q92793); test: Inhibition of CBP (unknown origin) biotinylated H4 (1 to 25)-GSGSK peptide as substrate incubated for 1 hr in presence of acetyl-coA by AlphaLISA assay
Chain of CREB-binding protein (Q92793 whole entry): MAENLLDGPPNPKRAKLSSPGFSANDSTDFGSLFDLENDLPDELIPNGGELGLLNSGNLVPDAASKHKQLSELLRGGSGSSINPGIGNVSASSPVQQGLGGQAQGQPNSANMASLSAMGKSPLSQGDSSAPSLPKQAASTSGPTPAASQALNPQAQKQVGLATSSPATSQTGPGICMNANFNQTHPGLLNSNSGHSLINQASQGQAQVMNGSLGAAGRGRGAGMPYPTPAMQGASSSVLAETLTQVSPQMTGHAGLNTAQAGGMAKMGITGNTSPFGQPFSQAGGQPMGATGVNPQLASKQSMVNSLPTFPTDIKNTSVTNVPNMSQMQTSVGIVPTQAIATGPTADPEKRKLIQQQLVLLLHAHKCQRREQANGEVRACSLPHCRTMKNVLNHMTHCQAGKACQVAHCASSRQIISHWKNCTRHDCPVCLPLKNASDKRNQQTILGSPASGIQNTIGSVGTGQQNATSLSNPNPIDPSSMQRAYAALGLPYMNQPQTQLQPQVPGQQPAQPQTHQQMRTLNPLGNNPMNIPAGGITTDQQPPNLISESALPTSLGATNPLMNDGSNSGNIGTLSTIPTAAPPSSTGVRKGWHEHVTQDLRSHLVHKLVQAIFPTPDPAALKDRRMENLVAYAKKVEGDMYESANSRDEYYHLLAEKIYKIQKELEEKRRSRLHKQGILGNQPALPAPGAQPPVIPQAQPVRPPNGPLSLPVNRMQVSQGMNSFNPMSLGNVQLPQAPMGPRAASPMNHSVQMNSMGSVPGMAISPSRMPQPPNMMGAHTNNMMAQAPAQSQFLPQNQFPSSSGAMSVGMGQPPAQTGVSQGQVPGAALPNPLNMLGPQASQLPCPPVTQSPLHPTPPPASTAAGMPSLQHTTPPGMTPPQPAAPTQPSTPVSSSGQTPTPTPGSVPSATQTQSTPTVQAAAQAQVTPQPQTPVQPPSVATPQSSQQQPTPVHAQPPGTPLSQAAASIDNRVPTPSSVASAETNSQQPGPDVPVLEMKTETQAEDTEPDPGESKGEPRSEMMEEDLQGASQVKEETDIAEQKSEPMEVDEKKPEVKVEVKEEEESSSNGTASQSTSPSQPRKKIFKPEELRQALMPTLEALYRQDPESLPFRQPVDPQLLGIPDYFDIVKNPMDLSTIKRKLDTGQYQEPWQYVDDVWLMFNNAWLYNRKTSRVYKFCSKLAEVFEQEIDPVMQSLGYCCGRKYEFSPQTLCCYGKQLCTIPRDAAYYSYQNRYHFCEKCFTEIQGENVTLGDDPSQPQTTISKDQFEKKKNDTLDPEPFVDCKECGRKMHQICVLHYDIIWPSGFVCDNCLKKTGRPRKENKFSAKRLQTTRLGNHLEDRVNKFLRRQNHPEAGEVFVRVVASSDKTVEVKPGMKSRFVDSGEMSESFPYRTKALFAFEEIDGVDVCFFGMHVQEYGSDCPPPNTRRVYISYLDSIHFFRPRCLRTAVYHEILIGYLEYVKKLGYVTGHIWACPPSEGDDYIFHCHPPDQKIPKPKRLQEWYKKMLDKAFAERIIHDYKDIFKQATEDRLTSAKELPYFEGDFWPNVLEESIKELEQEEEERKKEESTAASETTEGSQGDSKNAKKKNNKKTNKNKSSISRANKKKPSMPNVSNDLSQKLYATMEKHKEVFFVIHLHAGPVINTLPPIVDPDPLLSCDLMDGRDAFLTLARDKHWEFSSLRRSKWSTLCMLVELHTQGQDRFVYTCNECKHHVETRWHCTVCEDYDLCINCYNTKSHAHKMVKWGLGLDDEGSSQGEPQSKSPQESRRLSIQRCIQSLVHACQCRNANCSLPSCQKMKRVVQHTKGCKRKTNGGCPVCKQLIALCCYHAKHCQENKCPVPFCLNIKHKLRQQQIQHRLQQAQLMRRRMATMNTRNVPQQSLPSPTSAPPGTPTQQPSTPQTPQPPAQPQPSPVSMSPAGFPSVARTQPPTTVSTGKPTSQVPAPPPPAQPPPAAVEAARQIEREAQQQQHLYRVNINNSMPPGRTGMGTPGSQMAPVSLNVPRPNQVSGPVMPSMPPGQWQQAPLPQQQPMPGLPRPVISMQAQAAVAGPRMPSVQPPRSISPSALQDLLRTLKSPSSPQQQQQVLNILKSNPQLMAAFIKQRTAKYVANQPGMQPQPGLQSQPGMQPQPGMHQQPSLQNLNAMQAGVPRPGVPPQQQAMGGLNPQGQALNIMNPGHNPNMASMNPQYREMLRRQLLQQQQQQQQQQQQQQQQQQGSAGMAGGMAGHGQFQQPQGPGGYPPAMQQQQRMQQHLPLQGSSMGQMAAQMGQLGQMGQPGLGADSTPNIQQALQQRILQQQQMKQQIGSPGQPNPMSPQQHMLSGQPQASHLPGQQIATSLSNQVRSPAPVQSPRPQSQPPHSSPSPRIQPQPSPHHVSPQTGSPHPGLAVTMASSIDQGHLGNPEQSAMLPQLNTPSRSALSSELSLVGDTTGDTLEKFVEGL

LNCaP [16] = test: Antiproliferative activity against AR-positive human LNCaP cells assessed as cell growth inhibition incubated for 7 days by CellTiter-Glo assay; assay type: functional; settings: 168 h, time 7 day
[17] = Metabolic stability in mouse liver microsomes assessed as intrinsic clearance at 1 uM; assay type: ADME, Microsome
[18] = AUC in BALB/cAnNCrlCrlj mouse at 10 mg/kg,po; assay type: ADME, organism-based; parameters: dose 10 mg/kg, route po; settings: in vivo
[19] = target: Histone acetyltransferase KAT2B (Homo sapiens, UniProt Q92831); test: Inhibition of PCAF (unknown origin) biotinylated H3 (1 to […])-GGK peptide as substrate incubated for 1 hr in presence of acetyl-coA by AlphaLISA assay
Chain of Histone acetyltransferase KAT2B (Q92831 whole entry): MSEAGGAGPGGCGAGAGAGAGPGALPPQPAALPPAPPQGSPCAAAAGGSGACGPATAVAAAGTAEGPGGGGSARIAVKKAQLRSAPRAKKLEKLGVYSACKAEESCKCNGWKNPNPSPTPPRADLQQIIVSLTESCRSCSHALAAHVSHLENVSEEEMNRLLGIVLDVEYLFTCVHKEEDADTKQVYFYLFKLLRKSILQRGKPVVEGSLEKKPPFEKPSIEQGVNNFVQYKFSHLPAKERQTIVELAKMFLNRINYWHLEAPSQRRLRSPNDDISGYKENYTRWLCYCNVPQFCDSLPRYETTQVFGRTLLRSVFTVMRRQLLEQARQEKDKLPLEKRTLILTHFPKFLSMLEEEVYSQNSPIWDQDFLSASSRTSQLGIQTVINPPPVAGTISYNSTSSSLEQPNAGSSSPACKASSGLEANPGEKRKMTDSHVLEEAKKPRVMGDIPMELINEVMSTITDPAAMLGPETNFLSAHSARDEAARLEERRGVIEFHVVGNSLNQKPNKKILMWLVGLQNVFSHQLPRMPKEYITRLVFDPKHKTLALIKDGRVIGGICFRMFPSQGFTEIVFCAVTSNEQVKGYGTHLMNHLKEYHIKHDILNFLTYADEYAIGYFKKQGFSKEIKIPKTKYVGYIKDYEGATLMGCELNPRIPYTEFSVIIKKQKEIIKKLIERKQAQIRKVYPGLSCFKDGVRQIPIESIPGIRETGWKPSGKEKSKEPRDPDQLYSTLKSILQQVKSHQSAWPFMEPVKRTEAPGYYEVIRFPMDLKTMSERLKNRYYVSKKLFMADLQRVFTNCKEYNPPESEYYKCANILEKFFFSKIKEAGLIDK

[20] = Cmax in BALB/cAnNCrlCrlj mouse at 10 mg/kg,po; assay type: ADME, organism-based; parameters: dose 10 mg/kg, route po; settings: in vivo
VCaP [21] = test: Inhibition of H3K18 acetylation in AR-positive human VCaP cells at 3.9 to 1000 nM incubated for 72 hrs by Western blot analysis; assay type: functional, cell-based; settings: dose 3.9-1000 nM
[22] = target: Histone acetyltransferase KAT6B (Homo sapiens, UniProt Q8WYB5); test: Inhibition of MYST4 (unknown origin) biotinylated H4 (1 to 25)-GSGSK peptide as substrate incubated for 1 hr in presence of acetyl-coA by AlphaLISA assay
VCaP [23] = test: Antiproliferative activity against AR-positive human VCaP cells assessed as cell growth inhibition incubated for 7 days by CellTiter-Glo assay; assay type: functional; settings: 168 h, time 7 day
LNCaP [24] = test: Downregulation of PSA expression in AR-positive human LNCaP cells at 3.9 to 1000 nM incubated for 72 hrs by Western blot analysis; assay type: functional, cell-based; settings: dose 3.9-1000 nM
[25] = Unbound AUC in BALB/cAnNCrlCrlj mouse at 10 mg/kg,po; assay type: ADME, organism-based; settings: in vivo
[26] = Half life in BALB/cAnNCrlCrlj mouse at 10 mg/kg,po; assay type: ADME, organism-based; settings: in vivo
VCaP [27] = test: Antitumor activity against human VCaP cells xenografted in castrated NSG mouse assessed as tumor growth inhibition at 1 mg/kg,po qd for 33 days consecutively; assay type: functional; settings: 792 h, time 33 day, read-out: TGI
VCaP [28] = test: Inhibition of H3K27 acetylation in AR-positive human VCaP cells at 3.9 to 1000 nM incubated for 72 hrs by Western blot analysis; assay type: functional, cell-based; settings: dose 3.9-1000 nM
PC-3 = test: Antiproliferative activity against AR-negative human PC-3 cells assessed as cell growth inhibition incubated for 7 days by CellTiter-Glo assay; assay type: functional; settings: PC-3, 168 h, time 7 day
VCaP [29] = test: Antitumor activity against human VCaP cells xenografted in castrated NSG mouse assessed as tumor growth inhibition at 3 mg/kg,po qd for 33 days consecutively; assay type: functional; settings: 792 h, time 33 day, read-out: TGI
[30] = Unbound clearance in BALB/cAnNCrlCrlj mouse at 1 mg/kg,iv administered as DMA/Tween80/saline (1:1:8 ratio) solution; assay type: ADME, organism-based; settings: in vivo

Chain of Histone acetyltransferase KAT5 (Q92993 whole entry): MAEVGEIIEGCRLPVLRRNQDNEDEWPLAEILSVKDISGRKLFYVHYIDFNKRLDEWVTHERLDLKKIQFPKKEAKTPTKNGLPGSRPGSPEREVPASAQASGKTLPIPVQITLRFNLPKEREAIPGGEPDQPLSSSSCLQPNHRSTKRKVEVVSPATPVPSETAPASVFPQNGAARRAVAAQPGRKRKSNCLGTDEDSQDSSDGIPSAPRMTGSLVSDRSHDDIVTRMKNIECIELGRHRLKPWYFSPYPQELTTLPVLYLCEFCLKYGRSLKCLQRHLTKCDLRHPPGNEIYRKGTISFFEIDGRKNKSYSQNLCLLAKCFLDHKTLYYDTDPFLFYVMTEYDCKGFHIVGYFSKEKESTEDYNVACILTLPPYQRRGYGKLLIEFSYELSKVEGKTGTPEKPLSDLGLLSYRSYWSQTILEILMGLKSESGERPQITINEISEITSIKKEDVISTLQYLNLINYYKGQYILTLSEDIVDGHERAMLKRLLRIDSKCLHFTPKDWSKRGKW

## COc1ccc(C2(C(=O)N3C[C@H](F)C[C@@H]3C(=O)Nc3ccc4[nH]ncc4n3)CCC(F)(F)CC2)cc1
[1]
  IC50: > 50000 nM
[2]
  Activity: Non-Toxic
LNCaP [3]
  inhibition: Dose-Dependent Effect
[4]
  Vd: 0.14 L/kg
VCaP [5]
  Activity: Dose-Dependent Effect
[6]
  logD at 0.5 h: 3
CWR22R
  GI50: 6.5 nM
[7]
  Activity: Non-Toxic
[8]
  IC50: > 50000 nM
[9]
  IC50: > 50000 nM
LNCaP [10]
  inhibition: Dose-Dependent Effect
VCaP [11]
  inhibition in vivo at 0.3 mg/kg: 39%
[12]
  IC50: 54 nM
VCaP [13]
  Activity: Dose-Dependent Effect
[14]
  intrinsic clearance: 50 µL/min/mg
[15]
  F: 21%
CREB-binding protein
  IC50: 1 nM
LNCaP [16]
  GI50: 3.4 nM
[17]
  intrinsic clearance (CLint): 50 µL/min/mg
[18]
  AUC: 130 µM·h
[19]
  IC50: > 50000 nM
[20]
  Cmax: 34 µM
VCaP [21]
  inhibition: Dose-Dependent Effect
[22]
  IC50: > 50000 nM
VCaP [23]
  GI50: 0.6 nM
LNCaP [24]
  Activity: Dose-Dependent Effect
[25]
  fAUC: 5.33 µM·h
[26]
  half-life: 2.4 h
VCaP [27]
  inhibition in vivo at 1 mg/kg: 74%
VCaP [28]
  inhibition: Dose-Dependent Effect
PC-3
  GI50: 287 nM
VCaP [29]
  inhibition in vivo at 3 mg/kg: 109%
[30]
  CL free: 39 mL/min/kg
